# Laboratory results reported in patent US8263603B2, “N3-substituted-N1-sulfonyl-5-fluoropyrimidinone derivatives” (Dow AgroSciences, LLC, priority 2010, dated 2012).
# Columns and labels:
# [1] = system: Mycosphaerella graminicola; anamorph: Septoria tritici; Bayer code SEPTTR; assay: Fungicidal activity against leaf blotch of wheat, three-day curative (3 DC); type: in vivo; details: Zymoseptoria tritici, 72 h, wheat plants (variety Yuma), rating of % disease control
# Protocol: (§1) Evaluation of Fungicidal Activity: Leaf Blotch of Wheat (Mycosphaerella graminicola; anamorph: Septoria tritici; Bayer code […]) Wheat plants (variety Yuma) were grown from seed in a greenhouse in 50% mineral soil/50% soil-less Metro mix until the first leaf was fully emerged, with 7-10 seedlings per pot. These plants were inoculated with an aqueous spore suspension of Septoria tritici either prior to or after fungicide treatments. After inoculation the plants were kept in 100% relative humidity (one day in a dark dew chamber followed by two days in a lighted dew chamber) to permit spores to germinate and infect the leaf. The plants were then transferred to a greenhouse for disease to develop. The following table presents the activity of typical compounds of the present disclosure when evaluated in these experiments. The effectiveness of the test compounds in controlling disease was determined by assessing the severity of disease on treated plants, and then converting the severity to percent control based on the level of disease on untreated, inoculated plants. • In each case of Table II the rating scale is as follows: […]
# [2] = system: Mycosphaerella graminicola; anamorph: Septoria tritici; Bayer code SEPTTR; assay: Fungicidal activity against leaf blotch of wheat, one-day protectant (1 DP); type: in vivo; details: Zymoseptoria tritici, 24 h, wheat plants (variety Yuma), rating of % disease control
# Protocol: as §1
SMILES,melting point,pest or weed control at 100 ppm [1],pest or weed control at 100 ppm [2]
"COc1ccc(S(=O)(=O)n2cc(F)c(=N)n(Cc3ccccc3)c2=O)cc1 [Compound 5, 3-benzyl-5-fluoro-4-imino-1-(4-methoxyphenylsulfonyl)-3,4-dihydropyrimidin-2(1H)-one]",,0 to 25%,0 to 25%
CCn1c(=N)c(F)cn(S(=O)(=O)c2ccc(Cl)cc2)c1=O [Compound 7],165 to 168 °C,76 to 100%,51 to 75%
CCn1c(=N)c(F)cn(S(=O)(=O)c2ccc(OC)cc2)c1=O [Compound 8],107 to 111 °C,51 to 75%,0 to 25%
CCn1c(=N)c(F)cn(S(=O)(=O)c2c(Cl)cccc2Cl)c1=O [Compound 9],182 to 185 °C,76 to 100%,0 to 25%

# Now from value to molecule, other results behind:
melting point,SMILES,pest or weed control at 100 ppm [1],pest or weed control at 100 ppm [2]
144 °C,"Cn1c(=N)c(F)cn(S(=O)(=O)c2ccccc2)c1=O [Compound 1, 1-Benzenesulfonyl-5-fluoro-4-imino-3-methyl-3,4-dihydro-1H-pyrimidin-2-one]",76 to 100%,76 to 100%
136 to 139 °C,Cn1c(=N)c(F)cn(S(=O)(=O)c2cccs2)c1=O [Compound 2],76 to 100%,76 to 100%
158 to 162 °C,COc1ccc(S(=O)(=O)n2cc(F)c(=N)n(C)c2=O)cc1 [Compound 3],76 to 100%,76 to 100%
147 to 150 °C,Cn1c(=N)c(F)cn(S(=O)(=O)c2ccc(Cl)cc2)c1=O [Compound 4],76 to 100%,76 to 100%
163 to 166 °C,"CCn1c(=N)c(F)cn(S(=O)(=O)c2ccccc2)c1=O [Compound 6, 1-benzenesulfonyl-5-fluoro-4-imino-3-ethyl-3,4-dihydro-1H-pyrimidin-2-one]",0 to 25%,0 to 25%
